“And” between values parts separate entries of the source, which are not always exact repeats. Equal values may be shown once.
Experiments:
copper [1] = assay: Study 301: plasma copper pharmacodynamics (dNCC, LBC, plasma total copper; daily mean AUEC); type: in vivo, human; conditions: for Mean Daily dNCC AUEC0-48w, Mean (SD): Full Analysis Set; for Mean Daily dNCC AUEC0-48w, Mean (SD) / Mean Daily dNCC AUEC0-48w, LSM (SE): multiple imputation
Excerpt: FIG. 1 provides a schematic view of the study design. […] This study is referred throughout as Study 301.
The primary endpoint integrated copper mobilization and sequestration (i.e., copper control) throughout the 48-week Primary Treatment Period by assessment of daily mean area under the effect-time curve (AUEC) of directly measured non-ceruloplasmin-bound copper (dNCC) concentration. […] Measurement of dNCC in plasma is highly sensitive and accurate, requiring no special formulas or assumptions. As proposed, dNCC AUEC0-48W is an indirect measure of copper mobilization and sequestration.
This assessment is also applicable to SoC treatments. In addition, plasma Cp, CpC, plasma total copper, and LBC were measured with AUEC calculated for plasma total copper and LBC.
Pharmacodynamics: Blood samples were collected to directly measure plasma total copper, PUF copper, dNCC, and LBC. Calculations may be performed for cNCC and cNCCconnected, the latter of which is non-ceruloplasmin-bound and non-molybdenum-albumin-bound copper.
The AUEC for dNCC concentration was calculated using the trapezoidal rule, and then divided by number of days to yield a mean daily AUEC plasma dNCC concentration from baseline to Week 48 (expressed as μmol/L and described as AUEC0-48W).
Tests were performed at a significance level of 0.05 (2-sided).

copper [2] = conditions: Study 301, FIG. 23, versus SoC chelator therapy
Excerpt: Biomarkers and Biobank Samples: Blood samples were collected to measure plasma Cp and CpC. Urine samples were collected for analysis of urine copper and molybdenum. Additional biomarker or biobank samples were collected for the analysis of molybdenum and/or copper species associated with treatment.

[3] = test system: patients with Wilson disease (WD); assay: Study 301: Clinical Global Impression scales (CGI-I, CGI-S); type: in vivo, human
Excerpt: Clinical Global Impression-[…]: The Clinical Global Impression (CGI) rating scales were commonly used measures of symptom severity, treatment response, and the efficacy of treatments in treatment studies of adult and pediatric patients with mental disorders.
The Clinical Global Impression-Severity scale (CGI-S) is a 7-point scale that requires the clinician to rate the severity of the patient's illness at the time of assessment, relative to the clinician's past experience with patients who have the same diagnosis. Considering total clinical experience, a patient was assessed on severity of illness at the time of rating as: 1, normal, not at all ill; 2, borderline ill; 3, mildly ill; 4, moderately ill; 5, markedly ill; 6, severely ill; or 7, extremely ill.
While transformed CGI-I (TCGI-I) assesses how the WD patients condition changed compared to baseline, CGI-I may indicate the overall clinical improvement of the patients in the study compared to baseline for each treatment arm.

[4] = test system: ^64CuCl2 (^64Cu) intestinal absorption and hepatic copper uptake; assay: Example 2: Copper Absorption study, oral 64Cu PET-CT in healthy subjects; type: in vivo, human
Protocol: Blood was collected at several time points to assess plasma copper kinetics. The study was carried out as a randomized, placebo-controlled intervention study. […] The study assessed the previously listed organs and the effect of anti-copper treatment by comparing the mean standard uptake value (SUV) in the organs of interest. […] The dynamic baseline scans and the subsequent static scans were compared across all treatments.

copper [5] = conditions: Study 201, BC-TTM monotherapy, Week 24
[6] = Study 301: adverse events in participants who switched from SoC to BC-TTM in the Extension Period; conditions: SoC Weeks 0-48 (N = 70), BC-TTM Weeks 49-96 (N = 61)
[7] = Study 301, Cohort 1, lower part of Table 5
[8] = Study 301, Cohort 2, lower part of Table 5
[9] = Study 301, Overall, lower part of Table 5
[10] = healthy subjects, after 15 hours

Bis-choline tetrathiomolybdate [BC-TTM]
AUEC(0-48 week) LBC, Mean (copper [1]; Study 301, Adolescent): 1.5 mmol/L | AUEC(0-48 week) LBC, Median (copper [1]; Study 301, Adolescent): 1.2 mmol/L | AUEC(0-48 week) PTC (plasma total copper), Mean (copper [1]; Study 301, Adolescent): 7.5 mmol/L | AUEC(0-48 week) PTC (plasma total copper), Median (copper [1]; Study 301, Adolescent): 5.4 mmol/L | AUEC(0-48 week) dNCC, Mean (copper [1]; Study 301, Adolescent): 2.7 mmol/L | AUEC(0-48 week) dNCC, Median (copper [1]; Study 301, Adolescent): 2.3 mmol/L | AUEC(0-48 week) LBC, Mean (copper [1]; Study 301, Adult): 1.8 mmol/L | AUEC(0-48 week) LBC, Median (copper [1]; Study 301, Adult): 1.2 mmol/L | AUEC(0-48 week) PTC (plasma total copper), Mean (copper [1]; Study 301, Adult): 7.8 mmol/L | AUEC(0-48 week) PTC (plasma total copper), Median (copper [1]; Study 301, Adult): 7.3 mmol/L | AUEC(0-48 week) dNCC, Mean (copper [1]; Study 301, Adult): 3.2 mmol/L | AUEC(0-48 week) dNCC, Median (copper [1]; Study 301, Adult): 2.2 mmol/L | Mean Daily dNCC AUEC0-48w, LSM Diff (SE), BC-TTM vs SoC (copper [1]; Study 301, Cohort 1): 1.64 (0.254) μmol/L | Mean Daily dNCC AUEC0-48w, Mean (SD) (copper [1]; Study 301, Cohort 1 (prior SoC >28 days)): 2.68 (2.118) μmol/L | Mean Daily dNCC AUEC0-48w, LSM (SE) (copper [1]; Study 301, Cohort 1, ANCOVA): 2.50 (0.150) μmol/L | Mean Daily dNCC AUEC0-48w, Between Group LSM Diff (SE) (copper [1]; [7]): 1.72 (0.277) μmol/L | Mean Daily dNCC AUEC0-48w, Within Group LSM (SE) (copper [1]; [7]): 2.59 (0.165) μmol/L | Mean Daily dNCC AUEC0-48w, LSM Diff (SE), BC-TTM vs SoC (copper [1]; Study 301, Cohort 2): 3.79 (0.584) μmol/L | Mean Daily dNCC AUEC0-48w, Mean (SD) (copper [1]; Study 301, Cohort 2 (treatment-naïve or SoC ≤28 days)): 4.58 (2.526) μmol/L | Mean Daily dNCC AUEC0-48w, LSM (SE) (copper [1]; Study 301, Cohort 2, ANCOVA): 4.76 (0.319) μmol/L | Mean Daily dNCC AUEC0-48w, Between Group LSM Diff (SE) (copper [1]; [8]): 3.68 (0.568) μmol/L | Mean Daily dNCC AUEC0-48w, Within Group LSM (SE) (copper [1]; [8]): 4.64 (0.315) μmol/L | time of peak of plasma dNCC (copper [1]; Study 301, FIG. 2): 4 to 6 weeks | Mean Daily dNCC AUEC0-48w, LSM Diff (SE), BC-TTM vs SoC (copper [1]; Study 301, Overall): 2.18 (0.244) μmol/L | Mean Daily dNCC AUEC0-48w, LSM (SE) (copper [1]; Study 301, Overall, ANCOVA): 3.18 μmol/L and 3.18 (0.167) μmol/L | Mean Daily dNCC AUEC0-48w, Mean (SD) (copper [1]; Study 301, Overall): 3.12 (2.347) μmol/L | Mean Daily dNCC AUEC0-48w, Between Group LSM Diff (SE) (copper [1]; [9]): 2.12 (0.253) μmol/L | Mean Daily dNCC AUEC0-48w, Within Group LSM (SE) (copper [1]; [9]): 3.06 (0.179) μmol/L | 24-hour urinary copper (copper [2]): lower | CGI-I scores at week 48 versus SoC ([3]; Study 301, FIG. 22): improvements | CGI-S (1-7, 1 is normal), Change from Baseline at 48 weeks, Mean ([3]; Study 301, Full Analysis Set): −0.5 | CGI-S, Difference at 48 weeks, LSM (SE), BC-TTM vs SoC ([3]; Study 301, Full Analysis Set): −0.2 (0.13) | T-CGI-I (−3 to 3, −3 is very much improved) at 48 weeks, Mean ([3]; Study 301, Full Analysis Set): −0.7 | T-CGI-I, Difference at 48 weeks, LSM (SE), BC-TTM vs SoC ([3]; Study 301, Full Analysis Set): −0.3 (0.15) | copper uptake in the liver one hour after oral 64Cu tracer ([4]; healthy subject, FIG. 25): virtually no copper uptake in the liver | Absorption of orally-administered copper compared to penicillamine, trientine, or placebo ([4]; healthy subjects): significantly reduced | blood levels of 64Cu ([4]; healthy subjects): reduced | mean SUV liver / hepatic uptake of labeled copper, comparison between treatments ([4]; healthy subjects, 1 hour and 15 hours after oral 64Cu): significantly lower | reduction of mean hepatic copper uptake ([4]; healthy subjects, 1 hr scan post treatment, oral 64Cu, 7 days treatment): ~90% | range of reduction in hepatic copper uptake ([4]; healthy subjects, 13 hour scan): 60%-90% | mean SUV liver compared with baseline or placebo ([4]; healthy subjects, FIG. 26): markedly reduced | mean SUV 64Cu Pancreas post treatment ([4]; healthy subjects, after 1 hour): lower than penicllamine, trientine and placebo | mean SUV 64Cu Urinary bladder post treatment ([4]; healthy subjects, after 1 hour): lower than penicllamine, trientine and placebo | mean SUV 64Cu Colon post treatment [4, 10]: higher than penicillamine and placebo | mean SUV 64Cu Gallbladder post treatment [4, 10]: lower than penicllamine, trientine and placebo | reduction of mean serum cNCCcorrected compared with baseline (copper [5]): 72% | Musculoskeletal and connective tissue disorders, E events [6]: 7 | Musculoskeletal and connective tissue disorders, N participants [6]: 7 | Musculoskeletal and connective tissue disorders, participants (%) [6]: 11.5%

From patent US20250082674A1, “METHODS OF TREATING COPPER METABOLISM-ASSOCIATED DISEASES OR DISORDERS” (priority 2021, published 2025)
